The values below are quoted from earlier work in patent US10507179B2, “Formulations of levosimendan for intravenous administration as infusion or injection and of infusion concentrate” (CARINOPHARM GmbH, priority 2015, dated 2019).

Values after ≈ are worked out from the molar mass of the structure shown. Values joined by “and” are separate entries in the source; they are usually repeats but may differ in a detail not shown here. Equal values may be shown once.

Assay in data set [1]: not given
This is another data set of the same source.

A word on the pKa: it is the negative logarithm of the acid dissociation constant. Broadly, the solubility is the dissolved amount per volume that the medium holds. Regarding `C[C@@H]1CC(=O)NN=C1c1ccc(NN=C(C#N)C#N)cc1` [Levosimendan, (−)-[[4-(1,4,5,6-tetrahydro-4-methyl-6-oxo-3-pyridazi-nyl)phenyl]hydrazono]propane dinitrile], the pKa was 6.3 and 6.26. For the same molecule, in data set [1] (pH value of 2), the solubility is 20 µg/mL (≈ 71.4 µM). Further, the “stability in aqueous solutions” value in data set [1] (physiological pH) is “not stable”. For the same molecule, the “solubility in phosphate buffer” value in data set [1] (room temperature, physiological pH of 7.4) is 400 µg/mL (≈ 1430 µM).
